PMC5392334, “Discovery and characterization of a novel irreversible EGFR mutants selective and potent kinase inhibitor CHMFL-EGFR-26 with a distinct binding mode” (Oncotarget, 2017)

Legend:
EPHA6 = molecular target: T1, EPHA6 (Homo sapiens, UniProt Q9UF33); test: KinomeScan; type: binding; settings: read-out: % control
T1 construct: purchased DiscoveRx KINOMEscan

JNK2 = molecular target: T2, JNK2 (Homo sapiens, UniProt P45984); test: KinomeScan; type: binding; settings: read-out: % control
T2 construct: purchased DiscoveRx KINOMEscan

[1] = molecular target: T3, ABL1(F317I)-nonphosphorylated (Homo sapiens, UniProt P00519, F317I); test: KinomeScan; type: binding; settings: read-out: % control
T3 construct: purchased DiscoveRx KINOMEscan

GCN2(Kin.Dom.2,S808G) = molecular target: T4, GCN2(Kin.Dom.2,S808G) (Homo sapiens, UniProt Q9P2K8, S808G); test: KinomeScan; type: binding; settings: read-out: % control
T4 construct: GCN2(Kin.Dom.2,S808G); purchased DiscoveRx KINOMEscan

PIM3 = molecular target: T5, PIM3 (Homo sapiens, UniProt Q86V86); test: KinomeScan; type: binding; settings: read-out: % control
T5 construct: purchased DiscoveRx KINOMEscan

NEK6 = molecular target: T6, NEK6 (Homo sapiens, UniProt Q9HC98); test: KinomeScan; type: binding; settings: read-out: % control
T6 construct: purchased DiscoveRx KINOMEscan

BaF3-FL-EGFR-del19-T790M = test: Anti-proliferation, BaF3 isogenic cell lines (CellTiter-Glo); type: cell-based; settings: Mus musculus, 72 hours, triplet testing
[2] = system: phosphorylation of STAT3 in HCC827 cells; test: Signaling pathway examination (immunoblotting); type: cell-based; settings: Homo sapiens, 4 hours
Source text: We next examined the effects of CHMFL-EGFR-26 on EGFR mediated signaling pathways in NSCLC cell lines with different EGFR mutants. […] As expected, in the EGFR wt expressing NCSCL cell lines A549 and H1355, only autophosphorylation of EGFR was affected and none of the downstream mediators was inhibited.
Cells were then collected and lysed. Phospho-EGF Receptor, Phospho-EGF Receptor (Tyr1068), Stat3, Phospho-Stat3 (Tyr705), AKT, Phospho-AKT (Ser473), Phospho-AKT (Thr308), p44/42 MAPK (Erk1/2), Phospho-p44/42 MAPK (Erk1/2) (Thr202/ Tyr204), p70 S6 Kinase, Phospho-p70 S6 Kinase (Thr389), eIF4E, Phospho-eIF4E (Ser209), 4E-BP1, Phospho-4E-BP1 (Thr37/46) antibody (Cell Signaling Technology) were used for immunoblotting.

PKAC-beta = molecular target: T7, PKAC-beta (Homo sapiens, UniProt P22694); test: KinomeScan; type: binding; settings: read-out: % control
T7 construct: purchased DiscoveRx KINOMEscan

DAPK2 = molecular target: T8, DAPK2 (Homo sapiens, UniProt Q9UIK4); test: KinomeScan; type: binding; settings: read-out: % control
T8 construct: purchased DiscoveRx KINOMEscan

TBK1 = molecular target: T9, TBK1 (Homo sapiens, UniProt Q9UHD2); test: KinomeScan; type: binding; settings: read-out: % control
T9 construct: purchased DiscoveRx KINOMEscan

FLT3(ITD) = test: KinomeScan; type: binding; settings: 1μM
TRKC = molecular target: T10, TRKC (Homo sapiens, UniProt Q16288); test: KinomeScan; type: binding; settings: read-out: % control
T10 construct: purchased DiscoveRx KINOMEscan

SIK = molecular target: T11, SIK (Homo sapiens, UniProt P57059); test: KinomeScan; type: binding; settings: read-out: % control
T11 construct: purchased DiscoveRx KINOMEscan

p38-beta = molecular target: T12, p38-beta (Homo sapiens, UniProt Q15759); test: KinomeScan; type: binding; settings: read-out: % control
T12 construct: purchased DiscoveRx KINOMEscan

LRRK2(G2019S) = molecular target: T13, LRRK2(G2019S) (Homo sapiens, UniProt Q5S007, G2019S); test: KinomeScan; type: binding; settings: read-out: % control
T13 construct: purchased DiscoveRx KINOMEscan

EPHA7 = molecular target: T14, EPHA7 (Homo sapiens, UniProt Q15375); test: KinomeScan; type: binding; settings: read-out: % control
T14 construct: purchased DiscoveRx KINOMEscan

PIK3CA(E542K) = molecular target: T15, PIK3CA(E542K) (Homo sapiens, UniProt P42336, E542K); test: KinomeScan; type: binding; settings: read-out: % control
T15 construct: purchased DiscoveRx KINOMEscan

RIPK5 = molecular target: T16, RIPK5 (Homo sapiens, UniProt Q6XUX3); test: KinomeScan; type: binding; settings: read-out: % control
T16 construct: purchased DiscoveRx KINOMEscan

RET(V804M) = molecular target: T17, RET(V804M) (Homo sapiens, UniProt P07949, V804M); test: KinomeScan; type: binding; settings: read-out: % control
T17 construct: purchased DiscoveRx KINOMEscan

[3] = molecular target: T18, ABL1(H396P)-phosphorylated (Homo sapiens, UniProt P00519, H396P); test: KinomeScan; type: binding; settings: read-out: % control
T18 construct: purchased DiscoveRx KINOMEscan

GAK = molecular target: T19, GAK (Homo sapiens, UniProt O14976); test: KinomeScan; type: binding; settings: read-out: % control
T19 construct: purchased DiscoveRx KINOMEscan

VEGFR2 = molecular target: T20, VEGFR2 (Homo sapiens, UniProt P35968); test: KinomeScan; type: binding; settings: read-out: % control
T20 construct: purchased DiscoveRx KINOMEscan

DDR2 = molecular target: T21, DDR2 (Homo sapiens, UniProt Q16832); test: KinomeScan; type: binding; settings: read-out: % control
T21 construct: purchased DiscoveRx KINOMEscan

TRKB = molecular target: T22, TRKB (Homo sapiens, UniProt Q16620); test: KinomeScan; type: binding; settings: read-out: % control
T22 construct: purchased DiscoveRx KINOMEscan

EPHA5 = molecular target: T23, EPHA5 (Homo sapiens, UniProt P54756); test: KinomeScan; type: binding; settings: read-out: % control
T23 construct: purchased DiscoveRx KINOMEscan

[4] = system: BaF3-FL-EGFR-L858R-T790M-C797S; test: Anti-proliferation, BaF3 isogenic cell lines (CellTiter-Glo); type: cell-based; settings: Mus musculus, 72 hours, triplet testing
PIK3CD = molecular target: T24, PIK3CD (Homo sapiens, UniProt O00329); test: KinomeScan; type: binding; settings: read-out: % control
T24 construct: purchased DiscoveRx KINOMEscan

PAK6 = molecular target: T25, PAK6 (Homo sapiens, UniProt Q9NQU5); test: KinomeScan; type: binding; settings: read-out: % control
T25 construct: purchased DiscoveRx KINOMEscan

PRKD2 = molecular target: T26, PRKD2 (Homo sapiens, UniProt Q9BZL6); test: KinomeScan; type: binding; settings: read-out: % control
T26 construct: purchased DiscoveRx KINOMEscan

PKN1 = molecular target: T27, PKN1 (Homo sapiens, UniProt Q16512); test: KinomeScan; type: binding; settings: read-out: % control
T27 construct: purchased DiscoveRx KINOMEscan

STK39 = molecular target: T28, STK39 (Homo sapiens, UniProt Q9UEW8); test: KinomeScan; type: binding; settings: read-out: % control
T28 construct: purchased DiscoveRx KINOMEscan

BIKE = molecular target: T29, BIKE (Homo sapiens, UniProt Q9NSY1); test: KinomeScan; type: binding; settings: read-out: % control
T29 construct: purchased DiscoveRx KINOMEscan

ADCK4 = molecular target: T30, ADCK4 (Homo sapiens, UniProt Q96D53); test: KinomeScan; type: binding; settings: read-out: % control
T30 construct: purchased DiscoveRx KINOMEscan

EPHB3 = molecular target: T31, EPHB3 (Homo sapiens, UniProt P54753); test: KinomeScan; type: binding; settings: read-out: % control
T31 construct: purchased DiscoveRx KINOMEscan

GRK3 = molecular target: T32, GRK3 (Homo sapiens, UniProt P35626); test: KinomeScan; type: binding; settings: read-out: % control
T32 construct: purchased DiscoveRx KINOMEscan

BMPR2 = molecular target: T33, BMPR2 (Homo sapiens, UniProt Q13873); test: KinomeScan; type: binding; settings: read-out: % control
T33 construct: purchased DiscoveRx KINOMEscan

T30 sequence (Q96D53 whole entry): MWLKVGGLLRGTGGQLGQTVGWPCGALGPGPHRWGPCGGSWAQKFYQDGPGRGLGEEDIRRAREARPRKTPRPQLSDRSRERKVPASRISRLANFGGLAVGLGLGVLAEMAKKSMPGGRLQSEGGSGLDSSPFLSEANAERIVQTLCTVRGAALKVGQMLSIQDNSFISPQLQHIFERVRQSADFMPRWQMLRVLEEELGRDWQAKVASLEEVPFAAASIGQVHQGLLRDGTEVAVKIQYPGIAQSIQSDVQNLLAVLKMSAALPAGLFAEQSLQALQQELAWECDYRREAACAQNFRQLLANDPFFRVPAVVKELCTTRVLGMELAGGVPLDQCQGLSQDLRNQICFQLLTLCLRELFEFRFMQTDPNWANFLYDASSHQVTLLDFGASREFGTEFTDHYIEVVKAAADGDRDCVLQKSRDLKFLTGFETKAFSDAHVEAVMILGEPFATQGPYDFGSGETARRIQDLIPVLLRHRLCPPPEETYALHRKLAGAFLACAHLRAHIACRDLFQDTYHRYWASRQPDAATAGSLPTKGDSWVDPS
T29 sequence (Q9NSY1 whole entry): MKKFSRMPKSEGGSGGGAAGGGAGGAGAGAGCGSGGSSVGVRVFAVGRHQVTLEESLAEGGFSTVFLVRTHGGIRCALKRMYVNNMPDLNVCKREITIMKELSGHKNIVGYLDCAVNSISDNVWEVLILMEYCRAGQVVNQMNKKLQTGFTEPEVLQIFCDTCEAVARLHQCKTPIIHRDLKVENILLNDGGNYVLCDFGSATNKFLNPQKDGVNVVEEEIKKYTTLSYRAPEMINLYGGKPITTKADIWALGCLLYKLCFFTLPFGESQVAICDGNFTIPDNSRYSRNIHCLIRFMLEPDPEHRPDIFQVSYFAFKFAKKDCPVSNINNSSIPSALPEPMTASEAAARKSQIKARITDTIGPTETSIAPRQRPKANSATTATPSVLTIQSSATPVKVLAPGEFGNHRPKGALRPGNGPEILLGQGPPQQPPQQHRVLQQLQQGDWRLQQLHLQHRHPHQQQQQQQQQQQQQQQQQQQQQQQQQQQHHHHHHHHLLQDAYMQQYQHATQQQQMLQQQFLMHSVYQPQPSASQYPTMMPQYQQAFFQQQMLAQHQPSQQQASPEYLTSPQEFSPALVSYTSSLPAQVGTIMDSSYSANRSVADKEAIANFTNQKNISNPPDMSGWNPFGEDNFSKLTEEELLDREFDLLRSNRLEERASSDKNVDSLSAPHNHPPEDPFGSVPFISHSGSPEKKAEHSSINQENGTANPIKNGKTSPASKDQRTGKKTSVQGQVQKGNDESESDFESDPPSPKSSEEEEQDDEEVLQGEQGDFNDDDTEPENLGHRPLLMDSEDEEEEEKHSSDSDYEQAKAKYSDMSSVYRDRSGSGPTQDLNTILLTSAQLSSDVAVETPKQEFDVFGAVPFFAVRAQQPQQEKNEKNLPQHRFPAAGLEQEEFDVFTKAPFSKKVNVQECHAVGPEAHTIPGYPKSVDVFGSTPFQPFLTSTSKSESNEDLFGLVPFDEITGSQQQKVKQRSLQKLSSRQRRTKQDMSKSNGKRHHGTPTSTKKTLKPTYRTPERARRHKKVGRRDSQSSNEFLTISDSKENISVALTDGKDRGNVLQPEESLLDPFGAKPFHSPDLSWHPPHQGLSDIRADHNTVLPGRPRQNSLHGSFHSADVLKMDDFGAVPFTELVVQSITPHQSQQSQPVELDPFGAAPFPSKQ
T1 sequence (Q9UF33 23-1036): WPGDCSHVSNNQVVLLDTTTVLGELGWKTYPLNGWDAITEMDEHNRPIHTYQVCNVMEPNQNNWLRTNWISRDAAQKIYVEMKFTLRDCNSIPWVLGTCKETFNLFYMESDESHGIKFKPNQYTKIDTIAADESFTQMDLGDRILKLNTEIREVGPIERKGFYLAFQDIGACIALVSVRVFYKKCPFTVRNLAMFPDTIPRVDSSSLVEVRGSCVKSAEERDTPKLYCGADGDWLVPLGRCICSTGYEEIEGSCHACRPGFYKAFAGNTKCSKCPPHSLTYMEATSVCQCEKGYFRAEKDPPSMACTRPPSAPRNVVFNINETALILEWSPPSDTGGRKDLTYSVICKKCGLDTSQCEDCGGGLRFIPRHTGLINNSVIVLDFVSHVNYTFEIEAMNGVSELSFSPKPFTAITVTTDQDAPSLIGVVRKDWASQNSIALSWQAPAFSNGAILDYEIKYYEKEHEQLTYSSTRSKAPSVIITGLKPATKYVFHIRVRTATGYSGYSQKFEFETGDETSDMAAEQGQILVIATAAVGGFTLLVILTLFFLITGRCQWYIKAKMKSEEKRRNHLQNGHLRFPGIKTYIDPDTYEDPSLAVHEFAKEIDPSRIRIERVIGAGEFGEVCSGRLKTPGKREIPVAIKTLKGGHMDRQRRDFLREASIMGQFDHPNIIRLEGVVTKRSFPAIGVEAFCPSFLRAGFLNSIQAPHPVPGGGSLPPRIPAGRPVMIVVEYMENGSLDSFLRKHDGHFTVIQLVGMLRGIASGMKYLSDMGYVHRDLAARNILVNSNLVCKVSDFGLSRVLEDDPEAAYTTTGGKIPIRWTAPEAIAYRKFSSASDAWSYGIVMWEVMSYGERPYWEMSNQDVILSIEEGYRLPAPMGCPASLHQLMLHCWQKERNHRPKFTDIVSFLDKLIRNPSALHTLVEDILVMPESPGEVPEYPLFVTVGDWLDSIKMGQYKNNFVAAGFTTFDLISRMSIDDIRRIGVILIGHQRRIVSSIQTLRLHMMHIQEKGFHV
T23 sequence (P54756 25-1037): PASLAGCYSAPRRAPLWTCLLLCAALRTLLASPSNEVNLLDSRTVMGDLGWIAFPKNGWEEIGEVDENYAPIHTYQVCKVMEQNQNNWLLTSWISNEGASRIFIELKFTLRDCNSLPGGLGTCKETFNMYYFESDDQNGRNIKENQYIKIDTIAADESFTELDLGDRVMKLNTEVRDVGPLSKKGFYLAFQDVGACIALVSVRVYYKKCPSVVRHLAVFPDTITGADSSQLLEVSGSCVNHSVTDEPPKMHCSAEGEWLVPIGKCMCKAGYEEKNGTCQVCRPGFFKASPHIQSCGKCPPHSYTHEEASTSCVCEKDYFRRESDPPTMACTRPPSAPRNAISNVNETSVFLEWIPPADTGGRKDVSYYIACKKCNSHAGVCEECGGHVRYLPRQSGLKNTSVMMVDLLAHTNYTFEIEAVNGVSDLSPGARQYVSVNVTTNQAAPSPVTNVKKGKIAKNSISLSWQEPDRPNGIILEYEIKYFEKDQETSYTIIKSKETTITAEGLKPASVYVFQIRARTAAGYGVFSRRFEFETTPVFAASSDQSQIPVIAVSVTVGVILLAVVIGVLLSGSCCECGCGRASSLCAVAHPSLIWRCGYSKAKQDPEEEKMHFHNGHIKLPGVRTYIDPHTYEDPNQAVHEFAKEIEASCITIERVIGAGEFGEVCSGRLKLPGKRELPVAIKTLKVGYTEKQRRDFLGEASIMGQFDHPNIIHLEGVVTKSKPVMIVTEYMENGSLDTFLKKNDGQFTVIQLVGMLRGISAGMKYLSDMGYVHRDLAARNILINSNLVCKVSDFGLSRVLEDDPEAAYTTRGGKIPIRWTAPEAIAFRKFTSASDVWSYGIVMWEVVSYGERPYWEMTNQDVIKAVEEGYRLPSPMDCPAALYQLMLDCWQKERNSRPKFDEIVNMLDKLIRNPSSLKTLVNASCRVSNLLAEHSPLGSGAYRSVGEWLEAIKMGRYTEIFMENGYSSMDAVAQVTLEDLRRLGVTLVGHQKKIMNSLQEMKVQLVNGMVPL
T2 sequence (P45984 whole entry): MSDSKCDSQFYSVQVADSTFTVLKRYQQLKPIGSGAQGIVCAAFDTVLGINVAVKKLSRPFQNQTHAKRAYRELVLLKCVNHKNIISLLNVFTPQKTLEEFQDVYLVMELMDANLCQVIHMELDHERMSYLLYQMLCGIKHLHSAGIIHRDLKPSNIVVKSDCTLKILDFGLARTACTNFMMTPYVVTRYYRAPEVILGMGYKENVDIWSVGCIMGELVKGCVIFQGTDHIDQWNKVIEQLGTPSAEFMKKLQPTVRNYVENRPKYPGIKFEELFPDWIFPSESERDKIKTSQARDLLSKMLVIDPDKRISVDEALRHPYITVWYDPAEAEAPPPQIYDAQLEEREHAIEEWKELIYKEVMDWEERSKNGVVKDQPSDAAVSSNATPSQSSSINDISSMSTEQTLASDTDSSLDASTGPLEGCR
T27 sequence (Q16512 whole entry): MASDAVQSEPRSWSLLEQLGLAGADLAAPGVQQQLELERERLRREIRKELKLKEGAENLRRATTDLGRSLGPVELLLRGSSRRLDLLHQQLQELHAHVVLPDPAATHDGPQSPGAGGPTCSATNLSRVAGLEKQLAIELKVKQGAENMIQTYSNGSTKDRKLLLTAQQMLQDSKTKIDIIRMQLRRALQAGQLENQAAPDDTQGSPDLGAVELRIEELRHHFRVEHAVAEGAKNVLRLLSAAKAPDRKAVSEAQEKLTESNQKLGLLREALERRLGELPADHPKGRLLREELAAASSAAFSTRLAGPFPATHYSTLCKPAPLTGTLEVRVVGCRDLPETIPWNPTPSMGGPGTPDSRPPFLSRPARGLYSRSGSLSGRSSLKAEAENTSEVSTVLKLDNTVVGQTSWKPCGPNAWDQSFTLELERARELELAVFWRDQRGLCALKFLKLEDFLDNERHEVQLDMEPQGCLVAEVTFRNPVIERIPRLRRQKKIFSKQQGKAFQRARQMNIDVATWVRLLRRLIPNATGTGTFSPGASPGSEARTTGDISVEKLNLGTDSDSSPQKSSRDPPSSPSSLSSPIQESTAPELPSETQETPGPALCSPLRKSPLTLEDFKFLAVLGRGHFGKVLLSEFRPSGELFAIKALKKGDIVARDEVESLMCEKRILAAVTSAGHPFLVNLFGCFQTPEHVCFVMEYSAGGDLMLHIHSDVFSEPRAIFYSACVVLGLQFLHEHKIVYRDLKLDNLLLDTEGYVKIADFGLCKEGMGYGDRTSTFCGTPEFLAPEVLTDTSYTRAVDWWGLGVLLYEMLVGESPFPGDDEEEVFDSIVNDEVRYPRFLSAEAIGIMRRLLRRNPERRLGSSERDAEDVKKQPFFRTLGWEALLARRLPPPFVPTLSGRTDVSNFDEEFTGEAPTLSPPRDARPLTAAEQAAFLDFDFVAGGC

In the case of `C=CC(=O)N1CCC[C@@H](n2nc(-c3ccc(OCc4cccc(C)n4)c(Cl)c3)c3c(N)ncnc32)C1` [CHMFL-EGFR-26], the remaining binding at 1 µM (EPHA6) is reported as 97%, the remaining binding at 1 µM (JNK2) is reported as 59% and the remaining binding at 1 µM [1] is reported as 100%. For the same compound, the remaining binding at 1 µM (GCN2(Kin.Dom.2,S808G)) was 90%, the remaining binding at 1 µM (PIM3) was 100% and the remaining binding at 1 µM (NEK6) was 100%. For the same compound, the GI50 (BaF3-FL-EGFR-del19-T790M) was less than 0.3 nM, the EC50 [2] was less than 10 nM and the remaining binding at 1 µM (PKAC-beta) was 14%. The remaining binding at 1 µM (DAPK2) was 100%, the remaining binding at 1 µM (TBK1) was 100% and the “% control” value (FLT3(ITD)) was 87%. It also gave a remaining binding at 1 µM (TRKC) of 100%, a remaining binding at 1 µM (SIK) of 69% and a remaining binding at 1 µM (p38-beta) of 100%. The remaining binding at 1 µM (LRRK2(G2019S)) was 100%, the remaining binding at 1 µM (EPHA7) was 100% and the remaining binding at 1 µM (PIK3CA(E542K)) was 93%. The remaining binding at 1 µM (RIPK5) was 13%, the remaining binding at 1 µM (RET(V804M)) was 93% and the remaining binding at 1 µM [3] was 100%. For the same compound, the remaining binding at 1 µM (GAK) was 72%, the remaining binding at 1 µM (VEGFR2) was 100% and the remaining binding at 1 µM (DDR2) was 90%. For the same compound, the remaining binding at 1 µM (TRKB) was 100%, the remaining binding at 1 µM (EPHA5) was 100% and the GI50 [4] was 340 nM. It also gave a remaining binding at 1 µM (PIK3CD) of 100%, a remaining binding at 1 µM (PAK6) of 74% and a remaining binding at 1 µM (PRKD2) of 81%. The remaining binding at 1 µM (PKN1) was 99%, the remaining binding at 1 µM (STK39) was 92% and the remaining binding at 1 µM (BIKE) was 96%. The remaining binding at 1 µM (ADCK4) was 100%, the remaining binding at 1 µM (EPHB3) was 100% and the remaining binding at 1 µM (GRK3) was 100%. It also gave a remaining binding at 1 µM (BMPR2) of 100%.
